Values joined by “and” are separate entries in the source; they are usually repeats but may differ in a detail not shown here. Identical values can stand only once.
Legend:
[1] = system: Lactobacillus acidophilus milk; experiment: Growth in simulated gastric acid supplemented with MSM; details: for Log Growth of L. acidophilus in milk average / Log Growth of L. acidophilus in milk in duplicate: simulated gastric acid
[2] = system: Bifidobacterium bifidum ATCC #29521; experiment: Growth in MRS broth + L-cysteine fortified with MSM
[3] = system: MDCK cells (ATCC # CCL-34); experiment: Cytotoxicity of MSM; assay type: cell-based, Canis; details: for Test Product Cytotoxicity (CPE): MDCK
Excerpt: Determination of test product cytotoxicity.
B. Toxicity Control for Pre-Treatment Test.

Aspergillus niger = experiment: USP Antimicrobial Effectiveness Test (AET), MSM in TSB; assay type: cell-based; parameters: key to AET microorganism count: Colonies too numerous to count (TNTC); details: for Log Reduction from Initial Microorganism Inoculum: 1:10 dilution of MSM, 14, 28 Days; for AET microorganism count: 48 hrs
Excerpt: Compounds or formulated products having antimicrobial activity may be evaluated with the United States Pharmacopeia (USP) Antimicrobial Effectiveness Test (AET). The AET involves the addition of specified microorganisms (Candida albicans, Aspergillus niger, Escherichia coli, Pseudomonas aeruginosa and Staphylococcus aureus) directly to a test product at relatively high concentrations to simulate contamination. The product is held for one month, with weekly analysis of microorganism levels. Depending on the route of administration of a product, satisfaction of the AET generally requires a 1 to 3 log reduction in bacteria from initial levels, which should occur in one to two weeks, with no further increase in bacteria after two weeks. For yeast and mold, no increase from the initial inoculums level is permitted.
Inoculations were made using Candida albicans, Aspergillus niger, Escherichia coli, Pseudomonas aeruginosa and Staphylococcus aureus. Tryptic soy broth (TSB) was used as the culturing media. […] The inoculated media was held for one month, during which time the added microorganisms were enumerated weekly to determine if they were growing, dying off, or remaining near the initial inoculation level. Data points were measured in triplicate at 48 hours, 3, 5, 14, 20, 28, and 30 days. The acceptance criteria for antimicrobial effectiveness are described in detail in the USP, herein incorporated by reference.

Bacillus coagulans = experiment: Colony formation, population weight and percent transmittance with MSM; assay type: cell-based; details: 546 nm, 25x25 mm agar section, 1.0, 2.5, 5.0% MSM
Procedure: The microorganisms were grown for 72 hours in 30 milliliters of tryptic soy broth. At the end of the 72 hours, the broth was measured for colony formation, with photographic documentation of colony formation on tryptic soy agar. Percent transmittance was also measured on a 25 mm×25 mm area of the tryptic soy agar placed between two microscope slides in a spectrophotometer.
For the Bacillus coagulans, the organism was isolated and grown for 24 hours before harvesting. The harvested microorganism was placed into a sterile 100 mL bottle called dilution A. Dilution A was further diluted into one working solution, with a count of 210 Bacillus coagulans per 1 mL, called dilution B. One milliliter of Dilution B was used to inoculate the 30 mL of TSB concentrations stated above.
Each dilution for the microorganism was plated in triplicate for each sample. To capture the appropriate colonies per milliliter, the microorganism was plated at six different dilutions.
The population count was based on the dilution of the tryptic soy broth after 72 hours and inoculation on to tryptic soy agar plates. The plates were incubated for 48 hours and enumerated.
The tryptic soy broth after 72 hours was centrifuged down in a conical vial. The supernatant was pulled off and the pellet was washed. The centrifuging and washing was repeated three times. […] Each vial was weighed empty and recorded. […]

Methylsulfonylmethane [MSM]
Log Growth of L. acidophilus in milk average ([1]; 5% MSM, 0 hours): 0.41 logs | Log Growth of L. acidophilus in milk average ([1]; 5% MSM, 3 hours): 0.41 logs | Log Growth of L. acidophilus in milk average ([1]; 5% MSM, 6 hours): 0.91 logs | Log Growth of L. acidophilus in milk in duplicate ([1]; 5% MSM, 6 hours): 0.82 logs and 1 logs | Log Growth of L. acidophilus in milk average ([1]; 5% MSM, 9 hours): 0.52 logs | Log Growth of L. acidophilus in milk in duplicate ([1]; 5% MSM, 9 hours): 0.52 logs | Log Growth of L. acidophilus in milk average ([1]; 5% MSM, 12 hours): 1.10 logs | Log Growth of L. acidophilus in milk average ([1]; 5% MSM, 15 hours): 1.43 logs | Log Growth of L. acidophilus in milk in duplicate ([1]; 5% MSM, 15 hours): 1.43 logs | Log Growth of L. acidophilus in milk average ([1]; 5% MSM, 24 hours): 1.66 logs | Log Growth of L. acidophilus in milk in duplicate ([1]; 5% MSM, 24 hours): 1.67 logs and 1.64 logs | Log Growth of L. acidophilus in milk average ([1]; 5% MSM, 48 hours): 1.33 logs | Log Growth of L. acidophilus in milk in duplicate ([1]; 5% MSM, 48 hours): 1.22 logs and 1.43 logs | decrease in growth ([1]; 5.0% MSM, Hour 48): 0.33 logs | increase in growth ([1]; 5.0% MSM, at 24 hours): 0.23 logs | Log Growth of L. acidophilus in milk average ([1]; […] MSM, 0 hours): 0 logs | Log Growth of L. acidophilus in milk in duplicate ([1]; […] MSM, 0 hours): 0 logs | Log Growth of L. acidophilus in milk average ([1]; […] MSM, 9 hours): 0.41 logs | decrease in growth ([1]; […] MSM, Hour 48): 0.38 logs | decrease in growth ([1]; […] MSM, at 24 hours): 0.11 logs | increase in growth ([1]; printed […] MSM, at 24 hours): 0.30 logs | Log Growth of Bifidobacteruim bifidum in Media Fortified with MSM ([2]; 0.125% MSM, Hr 0): 1.12 logs | Log Growth of Bifidobacteruim bifidum in Media Fortified with MSM ([2]; 0.125% MSM, Hr 8): 2.89 logs | Log Growth of Bifidobacteruim bifidum in Media Fortified with MSM ([2]; 0.125% MSM, Hr 16): 7.85 logs | Log Growth of Bifidobacteruim bifidum in Media Fortified with MSM ([2]; 0.125% MSM, Hr 24): 9.06 logs | Log Growth of Bifidobacteruim bifidum in Media Fortified with MSM ([2]; 0.125% MSM, Hr 32): 11.45 logs | Log Growth of Bifidobacteruim bifidum in Media Fortified with MSM ([2]; 0.125% MSM, Hr 40): 10.80 logs | Log Growth of Bifidobacteruim bifidum in Media Fortified with MSM ([2]; 0.125% MSM, Hr 48): 8.22 logs | Log Growth of Bifidobacteruim bifidum in Media Fortified with MSM ([2]; 0.125% MSM, Hr 56): 7.25 logs | Log Growth of Bifidobacteruim bifidum in Media Fortified with MSM ([2]; 0.125% MSM, Hr 64): 8.86 logs | Log Growth of Bifidobacteruim bifidum in Media Fortified with MSM ([2]; 0.125% MSM, Hr 72): 6.59 logs | Log Growth of Bifidobacteruim bifidum in Media Fortified with MSM ([2]; 0.125% MSM, Hr 80): 9.12 logs | Log Growth of Bifidobacteruim bifidum in Media Fortified with MSM ([2]; 0.125% MSM, Hr 88): 9.12 logs | Log Growth of Bifidobacteruim bifidum in Media Fortified with MSM ([2]; 0.125% MSM, Hr 96): <6.00 logs | Log Growth of Bifidobacteruim bifidum in Media Fortified with MSM ([2]; 0.5% MSM, Hr 0): 1.00 logs | Log Growth of Bifidobacteruim bifidum in Media Fortified with MSM ([2]; 0.5% MSM, Hr 8): 2.84 logs | Log Growth of Bifidobacteruim bifidum in Media Fortified with MSM ([2]; 0.5% MSM, Hr 16): 7.45 logs | Log Growth of Bifidobacteruim bifidum in Media Fortified with MSM ([2]; 0.5% MSM, Hr 24): 8.81 logs | Log Growth of Bifidobacteruim bifidum in Media Fortified with MSM ([2]; 0.5% MSM, Hr 32): 11.22 logs | Log Growth of Bifidobacteruim bifidum in Media Fortified with MSM ([2]; 0.5% MSM, Hr 40): 12.09 logs | Log Growth of Bifidobacteruim bifidum in Media Fortified with MSM ([2]; 0.5% MSM, Hr 48): 9.39 logs | Log Growth of Bifidobacteruim bifidum in Media Fortified with MSM ([2]; 0.5% MSM, Hr 56): 9.51 logs | Log Growth of Bifidobacteruim bifidum in Media Fortified with MSM ([2]; 0.5% MSM, Hr 64): 10.34 logs | Log Growth of Bifidobacteruim bifidum in Media Fortified with MSM ([2]; 0.5% MSM, Hr 72): 8.35 logs | Log Growth of Bifidobacteruim bifidum in Media Fortified with MSM ([2]; 0.5% MSM, Hr 80): 10.38 logs | Log Growth of Bifidobacteruim bifidum in Media Fortified with MSM ([2]; 0.5% MSM, Hr 88): 9.70 logs | Log Growth of Bifidobacteruim bifidum in Media Fortified with MSM ([2]; 0.5% MSM, Hr 96): 8.82 logs | log growth ([2]; 0.5% MSM, hour 96): 8.82 logs | log growth (estimated, outside the countable range) ([2]; 1% MSM, Hour 96): less than 6 logs | Log Growth of Bifidobacteruim bifidum in Media Fortified with MSM ([2]; 1% MSM, Hr 0): 1.00 logs | Log Growth of Bifidobacteruim bifidum in Media Fortified with MSM ([2]; 1% MSM, Hr 8): 2.73 logs | Log Growth of Bifidobacteruim bifidum in Media Fortified with MSM ([2]; 1% MSM, Hr 16): 7.73 logs | Log Growth of Bifidobacteruim bifidum in Media Fortified with MSM ([2]; 1% MSM, Hr 24): 8.81 logs | Log Growth of Bifidobacteruim bifidum in Media Fortified with MSM ([2]; 1% MSM, Hr 32): 11.49 logs | Log Growth of Bifidobacteruim bifidum in Media Fortified with MSM ([2]; 1% MSM, Hr 40): 11.19 logs | Log Growth of Bifidobacteruim bifidum in Media Fortified with MSM ([2]; 1% MSM, Hr 48): 10.43 logs | Log Growth of Bifidobacteruim bifidum in Media Fortified with MSM ([2]; 1% MSM, Hr 56): 10.57 logs | Log Growth of Bifidobacteruim bifidum in Media Fortified with MSM ([2]; 1% MSM, Hr 64): 10.66 logs | Log Growth of Bifidobacteruim bifidum in Media Fortified with MSM ([2]; 1% MSM, Hr 72): 8.34 logs | Log Growth of Bifidobacteruim bifidum in Media Fortified with MSM ([2]; 1% MSM, Hr 80): 9.43 logs | Log Growth of Bifidobacteruim bifidum in Media Fortified with MSM ([2]; 1% MSM, Hr 88): 10.41 logs | Log Growth of Bifidobacteruim bifidum in Media Fortified with MSM ([2]; 1% MSM, Hr 96): <6.00 logs | Log Growth of Bifidobacteruim bifidum in Media Fortified with MSM ([2]; 5% MSM, Hr 0): 1.12 logs | Log Growth of Bifidobacteruim bifidum in Media Fortified with MSM ([2]; 5% MSM, Hr 8): 2.04 logs | Log Growth of Bifidobacteruim bifidum in Media Fortified with MSM ([2]; 5% MSM, Hr 16): 6.10 logs | Log Growth of Bifidobacteruim bifidum in Media Fortified with MSM ([2]; 5% MSM, Hr 24): 8.43 logs | Log Growth of Bifidobacteruim bifidum in Media Fortified with MSM ([2]; 5% MSM, Hr 32): 11.13 logs | Log Growth of Bifidobacteruim bifidum in Media Fortified with MSM ([2]; 5% MSM, Hr 40): 11.78 logs | Log Growth of Bifidobacteruim bifidum in Media Fortified with MSM ([2]; 5% MSM, Hr 48): 10.70 logs | Log Growth of Bifidobacteruim bifidum in Media Fortified with MSM ([2]; 5% MSM, Hr 56): 10.59 logs | Log Growth of Bifidobacteruim bifidum in Media Fortified with MSM ([2]; 5% MSM, Hr 64): 14.32 logs | Log Growth of Bifidobacteruim bifidum in Media Fortified with MSM ([2]; 5% MSM, Hr 72): 8.65 logs | Log Growth of Bifidobacteruim bifidum in Media Fortified with MSM ([2]; 5% MSM, Hr 80): 12.20 logs | Log Growth of Bifidobacteruim bifidum in Media Fortified with MSM ([2]; 5% MSM, Hr 88): 12.31 logs | Log Growth of Bifidobacteruim bifidum in Media Fortified with MSM ([2]; 5% MSM, Hr 96): 9.60 logs | Log Growth of Bifidobacteruim bifidum in Media Fortified with MSM ([2]; […] MSM, Hr 96): <6.00 logs | maximum reached before the control ([2]; all MSM concentrations): 16 h | Test Product Cytotoxicity (CPE) ([3]; 0.5%): 00 | Test Product Cytotoxicity (CPE) ([3]; 1%): 00 | Test Product Cytotoxicity (CPE) ([3]; 2%): 00 | Test Product Cytotoxicity (CPE) ([3]; 3%): 00 | Test Product Cytotoxicity (CPE) ([3]; 4%): 00 | Test Product Cytotoxicity (CPE) ([3]; 5%): 00 | cytotoxic effect ([3]; MSM 6% through 0.5%): no visible cytotoxic effect | TC50 ([3]; kills 50% of uninfected cells): approximately 7% | Log Reduction from Initial Microorganism Inoculum (Aspergillus niger; 14 days after inoculation): 4.3 log | Log Reduction from Initial Microorganism Inoculum (Aspergillus niger; 28 days after inoculation): 4.5 log | AET microorganism count (Aspergillus niger; 1:100 dilution of MSM): TNTC* | AET microorganism count (Aspergillus niger; 1:1000 dilution of MSM): TNTC* | Percent Transmittance (Bacillus coagulans; 1.0% MSM): 51.5% | Percent Transmittance (Bacillus coagulans; 5.0% MSM): 45.6%
